# From patent publication US20250280829A1, “USE OF (5S)-3-[3-(3-CHLORO-2-FLUOROPHENOXY)-6-METHYLPYRIDAZIN-4-YL]-5-(2-CHLORO-4-METHYLBENZYL)-5,6-DIHYDRO-4H-1,2,4-OXADIAZINE FOR CONTROLLING UNWANTED MICROORGANISMS” (Bayer Aktiengesellschaft, priority 2022, published 2025)
# Assays:
# Alternaria brassicae = test: In vivo preventive test on Alternaria brassicae (leaf spot on radish or cabbage); conditions: 500 ppm of active ingredient; preventive spray on radish or cabbage; evaluated 3 to 4 days after inoculation
# Method: a-1. In Vivo Preventive Test on Alternaria brassicae (Leaf Spot on Radish or Cabbage) [table] The active ingredients were made soluble and homogenized in a mixture of Dimethyl sulfoxide/Acetone//Tween® 80 and then diluted in water to the desired concentration. The young plants of radish or cabbage were treated by spraying the active ingredient prepared as described above. Control plants were treated only with an aqueous solution of Acetone/Dimethyl sulfoxide/Tween® 80. After 24 hours, the plants were contaminated by spraying the leaves with an aqueous suspension of Alternaria brassicae spores. The contaminated radish or cabbage plants were incubated for 3 to 4 days at 20° C. and at 100% relative humidity.
# Botrytis cinerea [1] = test: In vivo preventive test on Botrytis cinerea (grey mould); conditions: 500 ppm of active ingredient; preventive spray on gherkin or cabbage; evaluated 4 to 5 days after inoculation
# Method: a-2. In Vivo Preventive Test on Botrytis cinerea (Grey Mould) [table] The active ingredients were made soluble and homogenized in a mixture of Dimethyl sulfoxide/Acetone//Tween® 80 and then diluted in water to the desired concentration. The young plants of gherkin or cabbage were treated by spraying the active ingredient prepared as described above. Control plants were treated only with an aqueous solution of Acetone/Dimethyl sulfoxide/Tween® 80. After 24 hours, the plants were contaminated by spraying the leaves with an aqueous suspension of Botrytis cinerea spores. The contaminated gherkin plants were incubated for 4 to 5 days at 17° C. and at 90% relative humidity. The contaminated cabbage plants were incubated for 4 to 5 days at 20° C. and at 100% relative humidity.
# Pyrenophora teres [2] = test: In vivo preventive test on Pyrenophora teres (net blotch on barley); conditions: 500 ppm of active ingredient; preventive spray on barley; evaluated 10 days after inoculation
# Method: (§1) a-3. In Vivo Preventive Test on Pyrenophora teres (Net Blotch on Barley) [table] The active ingredients were made soluble and homogenized in a mixture of Dimethyl sulfoxide/Acetone//Tween® 80 and then diluted in water to the desired concentration. The young plants of barley were treated by spraying the active ingredient prepared as described above. Control plants were treated only with an aqueous solution of Acetone/Dimethyl sulfoxide/Tween® 80. After 24 hours, the plants were contaminated by spraying the leaves with an aqueous suspension of Pyrenophora teres spores.
# Septoria tritici [3] = test: In vivo preventive test on Septoria tritici (leaf spot on wheat); conditions: 500 ppm of active ingredient; preventive spray on wheat; evaluated 17 to 19 days after inoculation
# Method: a-4. In Vivo Preventive Test on Septoria tritici (Leaf Spot on Wheat) [table] The active ingredients were made soluble and homogenized in a mixture of Dimethyl sulfoxide/Acetone//Tween® 80 and then diluted in water to the desired concentration. The young plants of wheat were treated by spraying the active ingredient prepared as described above. Control plants were treated only with an aqueous solution of Acetone/Dimethyl sulfoxide/Tween® 80. After 24 hours, the plants were contaminated by spraying the leaves with an aqueous suspension of Septoria tritici spores. The contaminated wheat plants were incubated for 72 hours at 17° C. and at 100% relative humidity and then for 14 to 16 days at 20° C. and at 90% relative humidity.
# Sphaerotheca fuliginea = test: In vivo preventive test on Sphaerotheca fuliginea (powdery mildew on cucurbits); conditions: 500 ppm of active ingredient; preventive spray on gherkin; evaluated 8 days after inoculation
# Method: as §1, with “a-5.” for “a-3.”, “Sphaerotheca fuliginea (Powdery Mildew” for “Pyrenophora teres (Net Blotch”, “Cucurbits)” for “Barley)”, “gherkin” for “barley”, “Sphaerotheca fuliginea” for “Pyrenophora teres”
# [4] = tested on: Colletotrichum lindemuthianum; test: In vivo preventive test on Colletotrichum lindemuthianum (leaf spot on bean); conditions: 500 ppm of active ingredient; preventive spray on bean; evaluated 7 days after inoculation
# Method: a-6. In Vivo Preventive Test on Colletotrichum lindemuthianum (Leaf Spot on Bean) [table] The active ingredients were made soluble and homogenized in a mixture of Dimethyl sulfoxide/Acetone//Tween® 80 and then diluted in water to the desired concentration. The young plants of bean were treated by spraying the active ingredient prepared as described above. Control plants were treated only with an aqueous solution of Acetone/Dimethyl sulfoxide/Tween® 80. After 24 hours, the plants were contaminated by spraying the leaves with an aqueous suspension of Colletotrichum lindemuthianum spores. The contaminated bean plants were incubated for 24 hours at 20° C. and at 100% relative humidity and then for 6 days at 20° C. and at 90% relative humidity.
# Alternaria alternata = Alternaria alternata in vitro cell test; type: cell-based; conditions: 120 h, 20 ppm of active ingredient, liquid culture, 5 days incubation, read-out: efficacy (inhibition of fungal growth)
# Method: (§2) a-7. Alternaria alternata In Vitro Cell Test [table] Fungicides were solubilized in DMSO and the solution used to prepare the required range of concentrations. The final concentration of DMSO used in the assay was ≤1%. A spore suspension of A. alternata was prepared and diluted to the desired spore density. Fungicides were evaluated for their ability to inhibit spore germination and mycelium growth in liquid culture assay. The compounds were added in the desired concentration to the culture medium with spores. After 5 days incubation, fungi-toxicity of compounds was determined by spectrometric measurement of mycelium growth. Inhibition of fungal growth was determined by comparing the absorbance values in wells containing the fungicides with the absorbance in control wells without fungicides.
# Fusarium culmorum = Fusarium culmorum in vitro cell test; type: cell-based; conditions: 96 h, 20 ppm of active ingredient, liquid culture, 4 days incubation, read-out: efficacy (inhibition of fungal growth)
# Method: a-8. Fusarium culmorum In Vitro Cell Test
# Fungicides were solubilized in DMSO and the solution used to prepare the required range of concentrations. The final concentration of DMSO used in the assay was ≤1%.
# A spore suspension of F. culmorum was prepared and diluted to the desired spore density.
# Fungicides were evaluated for their ability to inhibit spore germination and mycelium growth in liquid culture assay. The compounds were added in the desired concentration to the culture medium with spores. After 4 days incubation, fungi-toxicity of compounds was determined by spectrometric measurement of mycelium growth. Inhibition of fungal growth was determined by comparing the absorbance values in wells containing the fungicides with the absorbance in control wells without fungicides.
# Pyricularia Oryzae = test: microbe, parasite or virus in culture; type: cell-based; conditions: 120 h, read-out: efficacy (inhibition of fungal growth)
# Ustilago avenae = Ustilago avenae in vitro cell test; type: cell-based; conditions: 96 h, 20 ppm of active ingredient, liquid culture, 4 days of incubation, read-out: efficacy (inhibition of fungal growth)
# Method: a-10. Ustilago avenae In Vitro Cell Test [table] Fungicides were solubilized in DMSO and the solution used to prepare the required range of concentrations. The final concentration of DMSO used in the assay was ≤1%. Inoculum was prepared from a pre-culture of U. avenae grown in liquid medium and diluted to the desired optical density (OD). Fungicides were evaluated for their ability to inhibit mycelium growth in liquid culture assay. The compounds were added in the desired concentrations to culture medium containing the spore suspension. After 4 days of incubation, the fungicidal efficacy of compounds was determined by spectrometric measurement of mycelium growth. Inhibition of fungal growth was determined by comparing the absorbance values in wells containing the fungicides with the absorbance in control wells without fungicides.
# [5] = tested on: Colletotrichum lindemuthianum; test: Colletotrichum lindemuthianum in vitro cell test; type: cell-based; conditions: 144 h, 20 ppm of active ingredient, liquid culture, 6 days incubation, read-out: efficacy (inhibition of fungal growth)
# Method: as §2, with “a-11. Colletotrichum lindemuthianum In” for “a-7. Alternaria alternata In”, “of C. lindemuthianum” for “of A. alternata”, “inhibit spores” for “inhibit spore”, “After 6” for “After 5”
# Pyrenophora teres [6] = test: Pyrenophora teres in vitro cell test; type: cell-based; conditions: 144 h, 20 ppm of active ingredient, liquid culture, 6 days incubation, read-out: efficacy (inhibition of fungal growth)
# Method: as §2, with “a-12. Pyrenophora teres” for “a-7. Alternaria alternata”, “P. teres” for “A. alternata”, “6” for “5”
# Fusarium virguliforme = Fusarium virguliforme in vitro cell test; type: cell-based; conditions: 144 h, 20 ppm of active ingredient, liquid culture, 6 days incubation, read-out: efficacy (inhibition of fungal growth)
# Method: as §2, with “a-13. Fusarium virguliforme” for “a-7. Alternaria alternata”, “F. virguliforme” for “A. alternata”, “6” for “5”
# Botrytis cinerea [7] = test: Botrytis cinerea in vitro cell test; type: cell-based; conditions: 144 h, 20 ppm of active ingredient, liquid culture, 6 days incubation, read-out: efficacy (inhibition of fungal growth)
# Method: as §2, with “a-14. Botrytis cinerea” for “a-7. Alternaria alternata”, “B. cinerea” for “A. alternata”, “6” for “5”
# Septoria tritici [8] = test: Septoria tritici in vitro cell test; type: cell-based; conditions: Zymoseptoria tritici, 168 h; 20 ppm of active ingredient; liquid culture; 7 days incubation; read-out: efficacy (inhibition of fungal growth)
# Method: as §2, with “a-15. Septoria tritici” for “a-7. Alternaria alternata”, “S. tritici” for “A. alternata”, “After 5 days incubation, fungi-toxicity of compounds was determined by spectrometric measurement of mycelium growth.” left out
# Fusarium graminearum = type: in vivo; conditions: 500 ppm of active ingredient; preventive spray on wheat; evaluated 5 days after inoculation
structure (smiles),measurement,setting,value
"Cc1ccc(C[C@H]2CON=C(c3cc(C)nnc3Oc3cccc(Cl)c3F)N2)c(Cl)c1 [compound (I), (5S)-3-[3-(3-chloro-2-fluorophenoxy)-6-methylpyridazin-4-yl]-5-(2-chloro-4-methylbenzyl)-5,6-dihydro-4H-1,2,4-oxadiazine]",efficacy,Alternaria brassicae,at least 70%
same,efficacy,Botrytis cinerea [1],at least 70%
same,efficacy,Pyrenophora teres [2],at least 70%
same,efficacy,Septoria tritici [3],at least 70%
same,efficacy,Sphaerotheca fuliginea,at least 70%
same,efficacy,[4],at least 70%
same,inhibition at 20 ppm,Alternaria alternata,≥ 70%
same,inhibition at 20 ppm,Fusarium culmorum,≥ 70%
same,inhibition at 20 ppm,Pyricularia Oryzae,≥ 70%
same,inhibition at 20 ppm,Ustilago avenae,≥ 70%
same,inhibition at 20 ppm,[5],≥ 70%
same,inhibition at 20 ppm,Pyrenophora teres [6],≥ 70%
same,inhibition at 20 ppm,Fusarium virguliforme,≥ 70%
same,inhibition at 20 ppm,Botrytis cinerea [7],≥ 70%
same,inhibition at 20 ppm,Septoria tritici [8],≥ 70%
same,efficacy,Fusarium graminearum,at least 70%
